# Like-named read-outs stand apart in the source and are kept apart here.
# How the values were obtained:
# DNA gyrase from E. coli = molecular target: T1, DNA gyrase from E. coli (Escherichia coli, UniProt P0AES6); experiment: supercoiling HTS plate assay; format: biochemical; conditions: read-out: IC50
# T1 construct: purchased Inspiralis
# Summary of the method: (§1)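 E. coli gyrase tested by supercoiling and topo IV by relaxation in high-throughput plate format. IC50 from seven inhibitor concentrations; mean of three independent measurements.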
# topo IV from E. coli = molecular target: T2, topo IV from E. coli (Escherichia coli, UniProt P20083); experiment: relaxation HTS plate assay; format: biochemical
# T2 construct: purchased Inspiralis
# Summary of the method: as §1
# A. baumannii ATCC 17978 = experiment: MIC broth microdilution (CLSI); format: cell-based; conditions: Acinetobacter baumannii, ATCC17978
# Summary of the method: (§2)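 Cation-adjusted Mueller Hinton broth 2 microdilution, 5 × 10^4 cells per well in 100 μL, three parallel replicates, plates bagged to limit evaporation; growth read as OD600 after incubation.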
# S. aureus ATCC 29213 = experiment: MIC broth microdilution (CLSI); format: cell-based; conditions: Staphylococcus aureus, ATCC29213
# Summary of the method: as §2
# [1] = test system: Enterococcus faecalis ATCC 29212; experiment: MIC broth microdilution (CLSI); format: cell-based, E. faecalis; conditions: Enterococcus faecalis, ATCC29212
# E. coli ATCC 25922 = experiment: MIC broth microdilution (CLSI); format: cell-based; conditions: Escherichia coli, ATCC25922
# Summary of the method: (§3)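 Compounds were serially diluted in cation-adjusted Mueller Hinton broth 2 according to CLSI guidance, and each well received 5 × 10^4 cells. After 18 h at 37 °C and 150 rpm, absorbance at 600 nm defined the MIC as a triplicate-mean increment below 1.5-fold background.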
# E. faecium ATCC 700221 = experiment: MIC broth microdilution (CLSI); format: cell-based; conditions: Enterococcus faecium, ATCC700221
# [2] = test system: Enterobacter cloacae spp. cloacae ATCC 13047; experiment: MIC broth microdilution (CLSI); format: cell-based; conditions: Enterobacter cloacae, ATCC13047
# Summary of the method: as §3
# K. pneumoniae ATCC 10031 = experiment: MIC broth microdilution (CLSI); format: cell-based; conditions: Klebsiella pneumoniae, ATCC10031
# Summary of the method: as §3
# P. aeruginosa ATCC 27853 = experiment: MIC broth microdilution (CLSI); format: cell-based; conditions: Pseudomonas aeruginosa, ATCC27853
# Summary of the method: as §3
# [3] = test system: S. aureus (MRSA) ATCC 43300; experiment: MIC broth microdilution (CLSI); format: cell-based
# Summary of the method: as §3
# [4] = test system: S. aureus (VISA) ATCC 700699; experiment: MIC broth microdilution (CLSI); format: cell-based; conditions: Staphylococcus aureus
# Summary of the method: as §3
# T2 sequence (P0AFI2 whole entry): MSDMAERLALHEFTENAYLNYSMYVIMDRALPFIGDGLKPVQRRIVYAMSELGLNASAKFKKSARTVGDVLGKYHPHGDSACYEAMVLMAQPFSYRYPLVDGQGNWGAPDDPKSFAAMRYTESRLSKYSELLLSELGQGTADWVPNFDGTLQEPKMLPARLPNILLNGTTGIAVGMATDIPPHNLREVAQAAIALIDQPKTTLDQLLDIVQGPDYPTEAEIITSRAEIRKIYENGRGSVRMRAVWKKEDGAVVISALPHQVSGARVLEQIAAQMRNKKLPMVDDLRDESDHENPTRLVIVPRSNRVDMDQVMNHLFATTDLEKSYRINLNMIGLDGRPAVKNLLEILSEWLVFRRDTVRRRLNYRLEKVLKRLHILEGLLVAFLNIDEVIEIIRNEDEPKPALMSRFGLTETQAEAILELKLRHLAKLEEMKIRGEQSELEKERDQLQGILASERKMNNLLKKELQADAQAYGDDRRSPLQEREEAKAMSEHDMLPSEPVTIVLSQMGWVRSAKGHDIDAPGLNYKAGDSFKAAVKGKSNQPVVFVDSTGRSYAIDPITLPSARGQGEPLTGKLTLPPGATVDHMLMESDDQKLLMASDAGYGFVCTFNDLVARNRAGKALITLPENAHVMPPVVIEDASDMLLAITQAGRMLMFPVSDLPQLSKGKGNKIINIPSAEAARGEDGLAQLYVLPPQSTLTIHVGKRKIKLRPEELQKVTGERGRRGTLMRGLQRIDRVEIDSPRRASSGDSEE
# T2 sequence (P20083 whole entry): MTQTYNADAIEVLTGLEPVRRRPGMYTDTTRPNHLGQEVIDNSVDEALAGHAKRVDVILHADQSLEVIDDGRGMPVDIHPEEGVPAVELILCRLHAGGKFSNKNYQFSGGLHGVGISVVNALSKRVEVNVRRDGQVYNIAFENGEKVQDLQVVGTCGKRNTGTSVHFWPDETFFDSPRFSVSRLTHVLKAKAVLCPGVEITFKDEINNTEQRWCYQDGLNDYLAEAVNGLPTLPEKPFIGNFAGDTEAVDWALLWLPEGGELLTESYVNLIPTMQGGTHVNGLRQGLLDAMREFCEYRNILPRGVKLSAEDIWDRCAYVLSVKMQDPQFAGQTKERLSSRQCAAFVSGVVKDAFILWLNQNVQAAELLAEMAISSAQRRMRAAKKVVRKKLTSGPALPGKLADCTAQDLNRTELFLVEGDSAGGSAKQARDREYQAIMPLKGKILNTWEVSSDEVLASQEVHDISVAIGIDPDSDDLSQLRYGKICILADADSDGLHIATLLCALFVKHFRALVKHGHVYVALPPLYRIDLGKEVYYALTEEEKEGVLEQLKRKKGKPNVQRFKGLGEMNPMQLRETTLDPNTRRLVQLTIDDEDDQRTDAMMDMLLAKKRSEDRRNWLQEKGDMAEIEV
smiles,measurement,setting,value
"Cc1[nH]c(C(=O)Nc2nc3c(N4CCOC(C(F)(F)F)C4)cc(C(=O)O)cc3s2)c(Cl)c1Cl (stereo not shown) [7i, 2-(3,4-Dichloro-5-methyl-1H-pyrrole-2-carboxamido)-4-(2-(trifluoromethyl)morpholino)benzo[d]thiazole-6-carboxylic Acid]",IC50,DNA gyrase from E. coli,< 10 nM
same,IC50,topo IV from E. coli; IC50,63 ± 1 nM
same,MIC,A. baumannii ATCC 17978,4 µg/mL
same,MIC,S. aureus ATCC 29213,< 0.0312 µg/mL
same,MIC,[1],< 0.0312 µg/mL
same,MIC,E. coli ATCC 25922,16 µg/mL
same,MIC,E. faecium ATCC 700221,< 0.0312 µg/mL
same,MIC,[2],> 64 µg/mL
same,MIC,K. pneumoniae ATCC 10031,4 µg/mL
same,MIC,P. aeruginosa ATCC 27853,4 µg/mL
same,MIC,[3]; Staphylococcus aureus,< 0.0312 µg/mL
same,MIC,"[3]; Staphylococcus aureus, read-out: MIC [µg/mL](S. aureus MRSA ATCC4330)",< 0.0312 µg/mL
same,MIC,[4],< 0.0312 µg/mL
"Cc1[nH]c(C(=O)Nc2nc3c(N4C[C@H]5CC[C@@H](C4)O5)cc(C(=O)O)cc3s2)c(Cl)c1Cl [7g, 4-((1R,5S)-8-Oxa-3-azabicyclo[3.2.1]octan-3-yl)-2-(3,4-dichloro-5-methyl-1H-pyrrole-2-carboxamido)benzo[d]thiazole-6-carboxylic Acid]",IC50,DNA gyrase from E. coli,< 10 nM
same,IC50,topo IV from E. coli; read-out: IC50,16 ± 8 nM
same,MIC,A. baumannii ATCC 17978; read-out: MIC,1 µg/mL
same,MIC,A. baumannii ATCC 17978; read-out: MIC [µg/mL] (A. baumannii ATCC 17978),1 µg/mL
same,MIC,S. aureus ATCC 29213; read-out: MIC,< 0.0312 µg/mL
same,MIC,S. aureus ATCC 29213; read-out: MIC [µg/mL](S. aureus ATCC 29213),< 0.0312 µg/mL
same,MIC,[1]; read-out: MIC,< 0.0312 µg/mL
same,MIC,E. coli ATCC 25922; read-out: MIC,2 µg/mL
same,MIC,E. faecium ATCC 700221; read-out: MIC,< 0.0312 µg/mL
same,MIC,[2]; read-out: MIC,16 µg/mL
same,MIC,K. pneumoniae ATCC 10031; read-out: MIC,2 µg/mL
same,MIC,P. aeruginosa ATCC 27853; read-out: MIC,2 µg/mL
same,MIC,[3]; Staphylococcus aureus; read-out: MIC,< 0.0312 µg/mL
same,MIC,[3]; Staphylococcus aureus; read-out: MIC [µg/mL](S. aureus MRSA ATCC4330),< 0.0312 µg/mL
same,MIC,[4]; read-out: MIC,< 0.0312 µg/mL
